The target in assay [1] is muscarinic cholinergic receptors. Kind of assay: 3H-oxotremorine-M binding study. Particulars: inhibition of binding of 3H-oxotremorine-M; read-out: inhibition costant (Ki).
The next assay has as its target m4 receptors (Homo sapiens, UniProt P08173). In kind it is cell-based. Conditions: CHO m4 cells treated with pertussis toxin.
The next assay deals with T1, 5HT2C (Homo sapiens, UniProt P28335).
T1 sequence (P28335 33-458): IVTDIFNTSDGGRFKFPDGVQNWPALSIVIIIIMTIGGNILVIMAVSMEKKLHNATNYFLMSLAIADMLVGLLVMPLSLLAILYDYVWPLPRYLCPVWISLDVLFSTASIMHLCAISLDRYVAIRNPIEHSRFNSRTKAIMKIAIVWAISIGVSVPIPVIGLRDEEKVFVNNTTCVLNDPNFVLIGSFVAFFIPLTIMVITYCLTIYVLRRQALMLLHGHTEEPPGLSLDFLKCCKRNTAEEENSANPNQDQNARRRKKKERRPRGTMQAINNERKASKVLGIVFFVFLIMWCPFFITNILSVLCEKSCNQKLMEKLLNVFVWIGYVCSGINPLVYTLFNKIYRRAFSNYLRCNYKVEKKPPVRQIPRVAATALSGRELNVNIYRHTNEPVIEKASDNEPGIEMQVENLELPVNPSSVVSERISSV
Kind of assay: 5HT2C receptor affinity. In kind it is binding. Conditions: 5HT2C receptor subtype.

m4 receptors, sequence (P08173 whole entry): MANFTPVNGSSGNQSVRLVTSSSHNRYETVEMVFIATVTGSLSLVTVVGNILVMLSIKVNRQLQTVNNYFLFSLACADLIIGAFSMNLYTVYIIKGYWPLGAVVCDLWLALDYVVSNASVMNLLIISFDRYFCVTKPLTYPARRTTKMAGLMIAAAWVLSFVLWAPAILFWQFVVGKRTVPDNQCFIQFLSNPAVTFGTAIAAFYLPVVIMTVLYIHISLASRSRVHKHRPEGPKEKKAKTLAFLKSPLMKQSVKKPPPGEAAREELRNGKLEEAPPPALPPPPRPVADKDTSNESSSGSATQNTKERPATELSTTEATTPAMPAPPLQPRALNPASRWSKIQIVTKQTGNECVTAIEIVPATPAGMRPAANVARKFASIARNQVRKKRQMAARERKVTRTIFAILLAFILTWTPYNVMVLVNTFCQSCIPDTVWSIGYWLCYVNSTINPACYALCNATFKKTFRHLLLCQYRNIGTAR

Regarding `CCCCCCOc1nsnc1C1=CCCN(C)C1` [Xanomeline, 3-(4-hexyloxy-1,2,5-thiadiazol-3-yl)-1,2,5,6-tetrahydro-1-methylpyridine], the values for the Ki (in assay [1]; at 5HT2C) were 2 nM and 120 nM, respectively. The “formation of cAMP” value on m4 receptors was “efficaciously and potently stimulated the formation of cAMP”.
